From patent publication US20120283282A1, “Photoproducts of Tryptophan, Their Synthesis and Uses Thereof” (priority 2009, published 2012) come the findings set out here.

The subject of the assay is hepatic glucose output. In words: Glucose production assay in primary hepatocytes. In kind it is cell-based. As to conditions: FIG. 5. How it is done: Primary hepatocytes were cultured in six-well plates (1.4 times 10^6 cells per well) in DMEM with 10% FBS or, in case of hormonal treatments, in serum-free DMEM. The medium was then replaced with 1 ml of glucose production buffer consisting of glucose-free DMEM (pH 7.4), without phenol red, supplemented with 20 mM sodium lactate and 2 mM sodium pyruvate. After a 3-h incubation, 0.5 ml of medium was collected and the glucose concentration measured with a colorimetric glucose assay kit (Sigma). The readings were then normalized to the total protein content determined from the whole-cell lysates. (Yoon J C, et al. Nature 413: 131-8, 2001.)

In the case of `c1ccc2c(-c3nccc4c3[nH]c3ccccc34)c[nH]c2c1` (single isomer, unassigned) [Compound F7, 1-(1H-indol-3-yl)-9H-pyrido[3,4-b]indole], the hepatic glucose output result is given as “decreases hepatic glucose output”.
